Assay results as given in the NIST ThermoML archive (doi:10.1021/acs.jced.5b00197).
Numbers after ± are expanded uncertainties.

Assay: refractive index (other wavelength) (dimensionless); xn = mol fraction of the nth substance listed
Details: 94.64 kPa, Liquid, Standard Abbe refractometry

CC(=O)O [acetic acid] + Cc1ccccc1
refractive index
Details | Wavelength=404.7 nm | Wavelength=435.8 nm | Wavelength=486.1 nm | Wavelength=546.1 nm | Wavelength=587.6 nm | Wavelength=632.8 nm | Wavelength=644 nm | Wavelength=706.5 nm
298.15 K, x1 = 0.146 | – | – | – | – | 1.48187 ± 0.0004 | 1.47884 ± 0.0004 | 1.47816 ± 0.00041 | 1.47502 ± 0.0004
298.15 K, x1 = 0.277 | – | – | – | – | 1.46821 ± 0.0004 | 1.46538 ± 0.0004 | 1.46473 ± 0.00039 | 1.46178 ± 0.00039
298.15 K, x1 = 0.397 | – | – | – | – | 1.45629 ± 0.00039 | 1.45365 ± 0.00038 | 1.45303 ± 0.0004 | 1.45023 ± 0.00039
298.15 K, x1 = 0.506 | – | – | – | – | 1.44342 ± 0.00039 | 1.44095 ± 0.00038 | 1.44038 ± 0.00039 | 1.43776 ± 0.00038
298.15 K, x1 = 0.605 | – | – | – | – | 1.43125 ± 0.00038 | 1.42896 ± 0.00038 | 1.42842 ± 0.00038 | 1.42598 ± 0.00038
298.15 K, x1 = 0.697 | – | – | – | – | 1.41881 ± 0.00038 | 1.41669 ± 0.00038 | 1.41619 ± 0.00038 | 1.4139 ± 0.00037
298.15 K, x1 = 0.782 | – | – | – | – | 1.40658 ± 0.00038 | 1.40463 ± 0.00037 | 1.40417 ± 0.00038 | 1.40417 ± 0.00037
298.15 K, x1 = 0.859 | – | – | – | – | 1.3946 ± 0.00037 | 1.39284 ± 0.00037 | 1.39242 ± 0.00039 | 1.39049 ± 0.00038
298.15 K, x1 = 0.897 | – | – | – | – | 1.38527 ± 0.00037 | 1.38364 ± 0.00038 | 1.38326 ± 0.00037 | 1.38144 ± 0.00037
298.15 K, x1 = 0.932 | – | – | – | – | 1.38035 ± 0.00037 | 1.37878 ± 0.00037 | 1.37842 ± 0.00037 | 1.37669 ± 0.00037
298.15 K, x1 = 0.967 | – | – | – | – | 1.37526 ± 0.00037 | 1.37375 ± 0.00037 | 1.37341 ± 0.00037 | 1.37177 ± 0.00037
298.15 K, x1 = 1 | – | – | – | – | 1.37018 ± 0.00036 | 1.36876 ± 0.00036 | 1.36844 ± 0.00036 | 1.36686 ± 0.00036
303.15 K, x1 = 0.146 | 1.50611 ± 0.00045 | 1.49841 ± 0.00044 | 1.48963 ± 0.00042 | 1.48261 ± 0.00041 | 1.47918 ± 0.0004 | 1.47618 ± 0.0004 | 1.47549 ± 0.00042 | 1.47237 ± 0.0004
303.15 K, x1 = 0.277 | 1.4905 ± 0.00046 | 1.48332 ± 0.00043 | 1.47522 ± 0.00041 | 1.46865 ± 0.0004 | 1.46547 ± 0.0004 | 1.46268 ± 0.0004 | 1.46203 ± 0.00039 | 1.45908 ± 0.00039
303.15 K, x1 = 0.397 | 1.47698 ± 0.00043 | 1.47026 ± 0.00042 | 1.46273 ± 0.0004 | 1.45661 ± 0.0004 | 1.45363 ± 0.00039 | 1.451 ± 0.00038 | 1.45039 ± 0.0004 | 1.44761 ± 0.00039
303.15 K, x1 = 0.506 | 1.46241 ± 0.00043 | 1.45621 ± 0.00041 | 1.44918 ± 0.0004 | 1.44352 ± 0.00039 | 1.44075 ± 0.00039 | 1.4383 ± 0.00038 | 1.43773 ± 0.00039 | 1.43513 ± 0.00038
303.15 K, x1 = 0.605 | 1.44837 ± 0.00042 | 1.44266 ± 0.0004 | 1.43626 ± 0.00039 | 1.43107 ± 0.00039 | 1.42851 ± 0.00038 | 1.42623 ± 0.00038 | 1.42569 ± 0.00038 | 1.42326 ± 0.00038
303.15 K, x1 = 0.697 | 1.4344 ± 0.00041 | 1.42918 ± 0.0004 | 1.42331 ± 0.00039 | 1.41861 ± 0.00038 | 1.41625 ± 0.00038 | 1.41415 ± 0.00038 | 1.41365 ± 0.00038 | 1.41136 ± 0.00038
303.15 K, x1 = 0.782 | 1.42104 ± 0.0004 | 1.41634 ± 0.00039 | 1.41106 ± 0.00038 | 1.40674 ± 0.00038 | 1.4046 ± 0.00037 | 1.40267 ± 0.00037 | 1.40221 ± 0.00038 | 1.4001 ± 0.00037
303.15 K, x1 = 0.859 | 1.40698 ± 0.00038 | 1.40281 ± 0.00039 | 1.39813 ± 0.00038 | 1.3943 ± 0.00038 | 1.39235 ± 0.00037 | 1.39059 ± 0.00038 | 1.39018 ± 0.0004 | 1.38824 ± 0.00038
303.15 K, x1 = 0.897 | 1.39635 ± 0.00041 | 1.3926 ± 0.00039 | 1.38838 ± 0.00038 | 1.3849 ± 0.00038 | 1.38309 ± 0.00037 | 1.38146 ± 0.0004 | 1.38109 ± 0.00038 | 1.37929 ± 0.00037
303.15 K, x1 = 0.932 | 1.3908 ± 0.00038 | 1.38725 ± 0.00038 | 1.38329 ± 0.00039 | 1.37997 ± 0.00038 | 1.37826 ± 0.00038 | 1.37671 ± 0.00037 | 1.37634 ± 0.00037 | 1.37461 ± 0.00037
303.15 K, x1 = 0.967 | 1.38499 ± 0.00038 | 1.38168 ± 0.00038 | 1.37795 ± 0.00037 | 1.37485 ± 0.00037 | 1.37321 ± 0.00037 | 1.37172 ± 0.00037 | 1.37138 ± 0.00037 | 1.36976 ± 0.00037
303.15 K, x1 = 1 | 1.37917 ± 0.00037 | 1.37611 ± 0.00037 | 1.37261 ± 0.00037 | 1.36968 ± 0.00036 | 1.36815 ± 0.00036 | 1.36675 ± 0.00036 | 1.36643 ± 0.00036 | 1.36485 ± 0.00036
